# Measured values from the NIST ThermoML archive (doi:10.1016/j.jct.2014.03.026).
# Numbers after ± are expanded uncertainties.
# Assay: Molar enthalpy of transition or fusion
# Conditions: Crystal; DSC
compound,measurement,value
O=C1/C(=C/c2ccc(Cl)cc2)CCc2ccccc21,Molar enthalpy of transition or fusion,7.33 ± 0.239 kcal/mol
